How the values were obtained:
Format in all cases: biochemical
FGFR2 = FGFR2 (Homo sapiens (Human), UniProt P21802); test: FGFR Enzymatic Assay (FRET peptide phosphorylation), FGFR2; conditions: ATP 100 μM, enzyme 0.01 nM
Procedure: (§1) The inhibitor potency of the exemplified compounds was measured in an enzyme assay that measures peptide phosphorylation using FRET measurements to detect product formation. Inhibitors were serially diluted in DMSO and a volume of 0.5 μL was transferred to the wells of a 384-well plate. For FGFR3, a 10 μL volume of FGFR3 enzyme (Millipore) diluted in assay buffer (50 mM HEPES, 10 mM MgCl2, 1 mM EGTA, 0.01% Tween-20, 5 mM DTT, pH 7.5) was added to the plate and pre-incubated for 5-10 minutes. Appropriate controls (enzyme blank and enzyme with no inhibitor) were included on the plate. The assay was initiated by the addition of a 10 μL solution containing biotinylated EQEDEPEGDYFEWLE peptide substrate (SEQ ID NO: 1) and ATP (final concentrations of 500 nM and 140 μM respectively) in assay buffer to the wells. The plate was incubated at 25° C. for 1 hr. The reactions were ended with the addition of 10 μL/well of quench solution (50 mM Tris, 150 mM NaCl, 0.5 mg/mL BSA, pH 7.8; 30 mM EDTA with Perkin Elmer Lance Reagents at 3.75 nM Eu-antibody PY20 and 180 nM APC-Streptavidin). The plate was allowed to equilibrate for ˜1 hr before scanning the wells on a PheraStar plate reader (BMG Labtech).
(§2) FGFR1 and FGFR2 were measured under equivalent conditions with the following changes in enzyme and ATP concentrations: FGFR1, 0.02 nM and 210 μM, respectively and FGFR2, 0.01 nM and 100 μM, respectively. The enzymes were purchased from Millipore or Invitrogen.
(§3) GraphPad prism3 was used to analyze the data. The IC50 values were derived by fitting the data to the equation for a sigmoidal dose-response with a variable slope. Y=Bottom+(Top−Bottom)/(1+10^((Log IC50−X)*HillSlope)) where X is the logarithm of concentration and Y is the response.

FGFR3 = FGFR3 (Homo sapiens (Human), UniProt P22607); test: FGFR Enzymatic Assay (FRET peptide phosphorylation), FGFR3; conditions: ATP 140 μM
FGFR3, sequence (P22607 23-806): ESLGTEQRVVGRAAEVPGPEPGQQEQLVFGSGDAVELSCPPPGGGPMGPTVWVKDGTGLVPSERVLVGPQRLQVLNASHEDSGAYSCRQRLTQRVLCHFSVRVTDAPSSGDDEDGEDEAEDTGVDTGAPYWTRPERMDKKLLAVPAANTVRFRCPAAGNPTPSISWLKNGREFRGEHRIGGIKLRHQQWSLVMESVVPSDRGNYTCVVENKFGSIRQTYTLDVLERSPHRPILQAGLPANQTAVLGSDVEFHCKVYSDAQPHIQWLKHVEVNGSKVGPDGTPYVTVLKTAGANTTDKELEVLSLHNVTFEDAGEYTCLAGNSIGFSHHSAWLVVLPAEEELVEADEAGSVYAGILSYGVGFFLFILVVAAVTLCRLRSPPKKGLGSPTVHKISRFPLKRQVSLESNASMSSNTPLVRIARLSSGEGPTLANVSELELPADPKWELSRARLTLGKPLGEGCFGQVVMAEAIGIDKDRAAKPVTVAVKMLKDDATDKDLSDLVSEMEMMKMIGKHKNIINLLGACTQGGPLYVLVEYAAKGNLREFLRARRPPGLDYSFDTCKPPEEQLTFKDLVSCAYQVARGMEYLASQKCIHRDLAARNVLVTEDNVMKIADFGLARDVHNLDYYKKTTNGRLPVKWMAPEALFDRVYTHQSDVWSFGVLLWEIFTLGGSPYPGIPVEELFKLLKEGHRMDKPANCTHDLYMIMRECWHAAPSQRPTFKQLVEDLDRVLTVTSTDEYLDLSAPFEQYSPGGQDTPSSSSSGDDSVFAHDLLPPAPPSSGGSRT
Procedure: as §1, §3

FGFR1 = FGFR1 (Homo sapiens (Human), UniProt P11362); test: FGFR Enzymatic Assay (FRET peptide phosphorylation), FGFR1; conditions: ATP 210 μM, enzyme 0.02 nM
FGFR1, sequence (P11362 22-822): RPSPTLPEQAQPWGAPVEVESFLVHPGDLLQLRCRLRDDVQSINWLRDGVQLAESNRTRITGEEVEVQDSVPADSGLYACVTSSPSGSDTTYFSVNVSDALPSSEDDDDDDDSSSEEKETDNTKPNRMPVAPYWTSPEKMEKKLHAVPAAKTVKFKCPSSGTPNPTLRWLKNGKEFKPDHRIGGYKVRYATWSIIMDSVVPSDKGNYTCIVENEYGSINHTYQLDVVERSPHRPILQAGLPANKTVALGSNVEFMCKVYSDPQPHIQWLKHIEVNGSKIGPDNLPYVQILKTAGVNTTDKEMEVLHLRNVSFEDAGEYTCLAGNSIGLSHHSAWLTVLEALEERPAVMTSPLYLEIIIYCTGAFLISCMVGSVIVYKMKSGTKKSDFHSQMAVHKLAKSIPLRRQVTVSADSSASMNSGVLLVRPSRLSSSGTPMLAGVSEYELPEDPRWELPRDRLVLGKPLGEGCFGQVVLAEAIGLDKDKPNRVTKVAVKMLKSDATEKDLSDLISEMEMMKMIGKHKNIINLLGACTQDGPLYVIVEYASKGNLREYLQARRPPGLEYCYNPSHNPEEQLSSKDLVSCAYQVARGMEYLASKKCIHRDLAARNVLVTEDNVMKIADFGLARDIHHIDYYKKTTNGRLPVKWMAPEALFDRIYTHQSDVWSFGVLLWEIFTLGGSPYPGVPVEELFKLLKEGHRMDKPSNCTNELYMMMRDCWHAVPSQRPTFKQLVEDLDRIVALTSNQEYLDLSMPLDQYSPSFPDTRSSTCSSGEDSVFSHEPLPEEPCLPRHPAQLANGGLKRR
Procedure: as §1, §2, §3

Measured: IC50

FGFR2, sequence (P21802 22-821): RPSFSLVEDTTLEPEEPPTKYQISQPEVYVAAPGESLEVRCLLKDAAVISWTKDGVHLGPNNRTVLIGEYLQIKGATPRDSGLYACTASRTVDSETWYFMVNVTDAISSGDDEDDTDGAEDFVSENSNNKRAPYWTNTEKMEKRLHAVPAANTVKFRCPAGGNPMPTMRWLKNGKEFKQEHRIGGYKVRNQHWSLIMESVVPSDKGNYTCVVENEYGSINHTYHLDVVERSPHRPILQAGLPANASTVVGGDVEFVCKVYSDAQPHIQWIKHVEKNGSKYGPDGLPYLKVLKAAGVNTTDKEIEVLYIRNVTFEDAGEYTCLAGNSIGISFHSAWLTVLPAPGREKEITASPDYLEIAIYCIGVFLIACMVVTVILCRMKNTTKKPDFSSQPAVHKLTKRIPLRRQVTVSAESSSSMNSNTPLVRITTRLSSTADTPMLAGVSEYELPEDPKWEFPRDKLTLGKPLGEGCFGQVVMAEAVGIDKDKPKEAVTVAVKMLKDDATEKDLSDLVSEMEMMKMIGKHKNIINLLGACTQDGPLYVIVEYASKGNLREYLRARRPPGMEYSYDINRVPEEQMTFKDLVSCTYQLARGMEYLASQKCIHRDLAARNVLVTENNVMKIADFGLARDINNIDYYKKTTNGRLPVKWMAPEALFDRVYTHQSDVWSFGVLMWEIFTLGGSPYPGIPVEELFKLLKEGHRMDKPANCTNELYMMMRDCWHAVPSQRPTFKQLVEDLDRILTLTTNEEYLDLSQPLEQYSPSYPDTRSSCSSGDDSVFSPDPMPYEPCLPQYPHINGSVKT

COc1cc(OC)c(F)c(N2Cc3cnc(N)cc3C(C)(C)C2=O)c1F [Example 22, 6-amino-2-(2,6-difluoro-3,5-dimethoxyphenyl)-4,4-dimethyl-1,2-dihydro-2,7-naphthyridin-3(4H)-one]
< 100 nM: all assays above

COc1cc(OC)c(F)c(N2Cc3cnc(NCCN4CCOCC4)cc3C3(CC3)C2=O)c1F [Example 23, 2′-(2,6-difluoro-3,5-dimethoxyphenyl)-6′-[(2-morpholin-4-ylethyl)amino]-1′,2′-dihydro-3′H-spiro[cyclopropane-1,4′-[2,7]naphthyridin]-3′-one]
< 100 nM: all assays above

COc1cc(OC)c(F)c(N2Cc3cnc(N)cc3C3(CC3)C2=O)c1F [Example 24, 6′-amino-2′-(2,6-difluoro-3,5-dimethoxyphenyl)-1′H-spiro[cyclopropane-1,4′-[2,7]naphthyridin]-3′(2′H)-one]
< 100 nM: all assays above

CNc1cc2c(cn1)CN(c1c(F)c(OC)cc(OC)c1F)C(=O)C21CC1 [Example 25, 2′-(2,6-difluoro-3,5-dimethoxyphenyl)-6′-(methylamino)-1′,2′-dihydro-3′H-spiro[cyclopropane-1,4′-[2,7]naphthyridin]-3′-one]
< 100 nM: all assays above

COc1cc(OC)c(F)c(N2Cc3cnc(NC4CCOCC4)cc3C3(CC3)C2=O)c1F [Example 26, 2′-(2,6-difluoro-3,5-dimethoxyphenyl)-6′-(tetrahydro-2H-pyran-4-ylamino)-1′,2′-dihydro-3′H-spiro[cyclopropane-1,4′-[2,7]naphthyridin]-3′-one]
< 100 nM: all assays above

COc1cc(OC)c(F)c(N2Cc3cnc(NC[C@H](C)O)cc3C3(CC3)C2=O)c1F [Example 27, (S)-2′-(2,6-difluoro-3,5-dimethoxyphenyl)-6′-(2-hydroxypropylamino)-1′H-spiro[cyclopropane-1,4′-[2,7]naphthyridin]-3′(2′H)-one]
< 100 nM: all assays above

COc1cc(OC)c(F)c(N2Cc3cnc(NCc4ccccn4)cc3C3(CC3)C2=O)c1F [Example 28, 2′-(2,6-difluoro-3,5-dimethoxyphenyl)-6′-(pyridin-2-ylmethylamino)-1′H-spiro[cyclopropane-1,4′-[2,7]naphthyridin]-3′(2′H)-one]
< 100 nM: all assays above

COc1cc(OC)c(F)c(N2Cc3cnc(N[C@H]4CCOC4)cc3C3(CC3)C2=O)c1F [Example 29, (S)-2′-(2,6-difluoro-3,5-dimethoxyphenyl)-6′-(tetrahydrofuran-3-ylamino)-1′H-spiro[cyclopropane-1,4′-[2,7]naphthyridin]-3′(2′H)-one]
< 100 nM: all assays above

COc1cc(OC)c(F)c(N2Cc3cnc(NCCN4CCN(C)CC4)cc3C3(CC3)C2=O)c1F [Example 30, 2′-(2,6-difluoro-3,5-dimethoxyphenyl)-6′-(2-(4-methylpiperazin-1-yl)ethylamino)-1′H-spiro[cyclopropane-1,4′-[2,7]naphthyridin]-3′(2′H)-one]
< 100 nM: all assays above

COC(=O)Nc1cc2c(cn1)CN(c1c(F)c(OC)cc(OC)c1F)C(=O)C21CC1 [Example 31, methyl 2′-(2,6-difluoro-3,5-dimethoxyphenyl)-3′-oxo-2′,3′-dihydro-1′H-spiro[cyclopropane-1,4′-[2,7]naphthyridine]-6′-ylcarbamate]
< 100 nM: all assays above

COc1cc(OC)c(F)c(N2Cc3cnc(Nc4cccnc4)cc3C3(CC3)C2=O)c1F [Example 32, 2′-(2,6-difluoro-3,5-dimethoxyphenyl)-6′-(pyridin-3-ylamino)-1′H-spiro[cyclopropane-1,4′-[2,7]naphthyridin]-3′(2′H)-one]
< 100 nM: all assays above

COc1cc(OC)c(F)c(N2Cc3cnc(Nc4cccc(F)c4)cc3C3(CC3)C2=O)c1F [Example 33, 2′-(2,6-difluoro-3,5-dimethoxyphenyl)-6′-(3-fluorophenylamino)-1′H-spiro[cyclopropane-1,4′-[2,7]naphthyridin]-3′(2′H)-one]
< 100 nM: all assays above

COc1cc(OC)c(F)c(N2Cc3cnc(NC4CCCC4)cc3C3(CC3)C2=O)c1F [Example 34, 6′-(cyclopentylamino)-2′-(2,6-difluoro-3,5-dimethoxyphenyl)-1′H-spiro[cyclopropane-1,4′-[2,7]naphthyridin]-3′(2′H)-one]
< 100 nM: all assays above

COc1cc(OC)c(F)c(N2Cc3cnc(NC[C@@H]4CCCO4)cc3C3(CC3)C2=O)c1F [Example 35, (S)-2′-(2,6-difluoro-3,5-dimethoxyphenyl)-6′-((tetrahydrofuran-2-yl)methylamino)-1′H-spiro[cyclopropane-1,4′-[2,7]naphthyridin]-3′(2′H)-one]
< 100 nM: all assays above

COc1cc(OC)c(F)c(N2Cc3cnc(Nc4cnn(C)c4)cc3C3(CC3)C2=O)c1F [Example 36, 2′-(2,6-difluoro-3,5-dimethoxyphenyl)-6′-(1-methyl-1H-pyrazol-4-ylamino)-1′H-spiro[cyclopropane-1,4′-[2,7]naphthyridin]-3′(2′H)-one]
< 100 nM: all assays above

COc1cc(OC)c(F)c(N2Cc3cnc(NCc4cnn(C)c4)cc3C3(CC3)C2=O)c1F [Example 37, 2′-(2,6-difluoro-3,5-dimethoxyphenyl)-6′-((1-methyl-1H-pyrazol-4-yl)methylamino)-1′H-spiro[cyclopropane-1,4′-[2,7]naphthyridin]-3′(2′H)-one]
< 100 nM: all assays above

COc1cc(OC)c(F)c(N2Cc3cnc(N[C@H](C)c4ccccc4)cc3C3(CC3)C2=O)c1F [Example 38, (R)-2′-(2,6-difluoro-3,5-dimethoxyphenyl)-6′-(1-phenylethylamino)-1′H-spiro[cyclopropane-1,4′-[2,7]naphthyridin]-3′(2′H)-one]
< 100 nM: all assays above

COc1cc(OC)c(F)c(N2Cc3cnc(NC4CCCCC4)cc3C3(CC3)C2=O)c1F [Example 39, 6′-(cyclohexylamino)-2′-(2,6-difluoro-3,5-dimethoxyphenyl)-1′H-spiro[cyclopropane-1,4′-[2,7]naphthyridin]-3′(2′H)-one]
< 100 nM: all assays above

COc1cc(OC)c(F)c(N2Cc3cnc(N[C@H]4CC[C@H](O)CC4)cc3C3(CC3)C2=O)c1F [Example 40, 2′-(2,6-difluoro-3,5-dimethoxyphenyl)-6′-(trans-4-hydroxycyclohexylamino)-1′H-spiro[cyclopropane-1,4′-[2,7]naphthyridin]-3′(2′H)-one]
< 100 nM: all assays above

COc1cc(OC)c(F)c(N2Cc3cnc(NC4CC4)cc3C3(CC3)C2=O)c1F [Example 41, 6′-(cyclopropylamino)-2′-(2,6-difluoro-3,5-dimethoxyphenyl)-1′H-spiro[cyclopropane-1,4′-[2,7]naphthyridin]-3′(2′H)-one]
< 100 nM: all assays above

COc1cc(OC)c(F)c(N2Cc3cnc(NC4CCC4)cc3C3(CC3)C2=O)c1F [Example 42, 6′-(cyclobutylamino)-2′-(2,6-difluoro-3,5-dimethoxyphenyl)-1′H-spiro[cyclopropane-1,4′-[2,7]naphthyridin]-3′(2′H)-one]
< 100 nM: all assays above

COc1cc(OC)c(F)c(N2Cc3cnc(NC4CC(F)(F)C4)cc3C3(CC3)C2=O)c1F [Example 43, 2′-(2,6-difluoro-3,5-dimethoxyphenyl)-6′-(3,3-difluorocyclobutylamino)-1′H-spiro[cyclopropane-1,4′-[2,7]naphthyridin]-3′(2′H)-one]
< 100 nM: all assays above

COc1cc(OC)c(F)c(N2Cc3cnc(NC4CCN(C)CC4)cc3C3(CC3)C2=O)c1F [Example 44, 2′-(2,6-difluoro-3,5-dimethoxyphenyl)-6′-(1-methylpiperidin-4-ylamino)-1′H-spiro[cyclopropane-1,4′-[2,7]naphthyridin]-3′(2′H)-one]
< 100 nM: all assays above

— US10040790B2, “Bicyclic heterocycles as FGFR inhibitors” (Incyte Corporation, priority 2013, dated 2018)
